In PMC3597687 (Nucleic Acids Research, 2013):

molecular target: T1, LysMSs (S. solfataricus LysM) (Saccharolobus solfataricus, UniProt Q980W9); test: EMSA, effect on LysM binding to […]-labelled gltB operator DNA; conditions: gltB control region 167-bp fragment; effector 5 mM; 250 nM LysM
T1 sequence (Q980W9 1-142): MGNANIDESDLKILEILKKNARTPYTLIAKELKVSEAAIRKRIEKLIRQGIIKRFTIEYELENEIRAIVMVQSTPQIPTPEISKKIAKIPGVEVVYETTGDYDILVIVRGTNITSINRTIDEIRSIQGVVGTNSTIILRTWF

Which “EMSA, effect on LysM binding to 32P-labelled gltB operator DNA” value (from here on “EMSA, effect on LysM binding”) does the source give for NC(=O)CC[C@H](N)C(=O)O [L-glutamine] here?
The value was “arginine, glutamine, isoleucine, leucine, methionine and valine also specifically reduce LysM binding”.

CC[C@H](C)[C@H](N)C(=O)O [L-isoleucine] was tested. Which “EMSA, effect on LysM binding” value did it give?
Its value is “arginine, glutamine, isoleucine, leucine, methionine and valine also specifically reduce LysM binding”.

How did the “EMSA, effect on LysM binding” value turn out when CC(C)C[C@H](N)C(=O)O [L-leucine] was run?
The value was “arginine, glutamine, isoleucine, leucine, methionine and valine also specifically reduce LysM binding”.

With CSCC[C@H](N)C(=O)O [L-methionine] as the molecule, how does the “EMSA, effect on LysM binding” value read?
The value was “arginine, glutamine, isoleucine, leucine, methionine and valine also specifically reduce LysM binding”.

How did the “EMSA, effect on LysM binding” value turn out when CC(C)[C@H](N)C(=O)O [L-valine] was run?
The value was “arginine, glutamine, isoleucine, leucine, methionine and valine also specifically reduce LysM binding”.

same assay, conditions: gltB control region 167-bp fragment; weak effector, mM range

How did the “EMSA, effect on LysM binding” value turn out when N=C(N)NOCC[C@H](N)C(=O)O [L-canavanine] was run?
Its value is “The effect of L-canavanine and L-citrulline was less pronounced”.

How did the “EMSA, effect on LysM binding” value turn out when NC(=O)NCCC[C@H](N)C(=O)O [L-citrulline] was run?
The value was “The effect of L-canavanine and L-citrulline was less pronounced”.
